The values that follow come from PubChem BioAssay (NCI).

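Five concentrations, 48 hours, 96-well plates. At the GI50, growth is halved. At the TGI there is no net growth.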 Some results are limits rather than exact numbers.

Assay in all cases: NCI tumour cell line growth inhibition, 48 h
The subject of test [1] is 786-0 renal.
Test [2] concerns HCT-116 colon.
The test system of test [3] is HOP-92 NSCLC.
The subject of test [4] is K-562 leukemia.
For test [5], the system named is NCI-H460 lung.
Test [6] has as its system RXF 393 renal.
Test [7] concerns SF-295 CNS.
Test [8] relates to TK-10 renal.
In test [9] the test system is HOP-62 NSCLC.
The subject of test [10] is SR leukemia.

Regarding `Cn1nc(-c2ccccc2)c2c(/C=C/c3ccc(Cl)cc3)onc2c1=O`, the TGI in test [1] is 66 µM; in test [2], 28.4 µM; in test [3], 57.1 µM; in test [4] it was more than 100 µM; in test [5] it was more than 100 µM; in test [6], more than 100000 nM. Besides, the TGI in test [7] is 68.8 µM; in test [8], more than 100 µM.
As for `Nc1nc(=S)c2ncn(C3OC(CO)C(O)C3O)c2[nH]1` (stereo not drawn), the GI50 is 348 nM in [1]; 347 nM in test [2]; 0.273 µM in test [9]; 330 nM in test [3]; 490 nM in test [4]; 571 nM in [5]. For the same compound, the GI50 in test [6] is 34700 nM; in [7] it was 531 nM; in test [8], 633 nM. The TGI is 3.98 µM in test [9]; 7.53 µM in test [3]; more than 61.1 µM in test [4]; 12.2 µM in test [5]; more than 100000 nM in [6]; more than 100 µM in [7]. The TGI in [8] was more than 64.8 µM.
For `COC(=O)C(=O)C(C#N)c1cccc(Cl)c1` (stereo not drawn), the TGI in [1] was more than 100 µM; in test [2], more than 100 µM; in test [9], more than 100 µM; in test [4], more than 100 µM; in test [5] it was more than 100 µM; in [6] it was more than 100000 nM. Moreover, the TGI in test [7], in test [10] and in [8] was more than 100 µM each time.
With `Cc1cc2nc3c(=O)[nH]c(=O)nc-3n(CC(O)C(O)C(O)CO)c2cc1N` (stereo not drawn), the TGI in test [1], in test [2], in test [3], in test [4], in [5] and in test [7] was more than 100 µM throughout. Also, the TGI in test [8] is more than 100 µM.
Turning to `CCC1(OC(=O)CNC)C(=O)OCc2c1cc1n(c2=O)Cc2cc3ccccc3nc2-1` (stereo not drawn), the TGI in test [1] is 0.0152 µM; in test [2], 0.264 µM; in [9], less than 0.0143 µM; in [3] it was 1.56 µM; in [4], more than 60.1 µM; in test [5], 0.399 µM. Further, the TGI worked out at 115 nM in test [6] and 30.4 µM in test [8].
On to `COc1ccc(CN2C(=O)/C(=C\C(=O)c3ccc(OCCN4CCCC4)cc3)c3ccccc32)cc1`, for which the GI50 in test [1] was 1680 nM; in [9] it was 20.8 µM; in test [3] it was 2090 nM; in [4] it was 2050 nM; in test [5] it was 2030 nM; in test [6], 1950 nM. In addition, the GI50 in test [7] was 14800 nM; in [8], 1740 nM. The TGI in test [1] was found to be 3.19 µM; in [9], 43.9 µM; in test [3], 4.9 µM; in test [4], 6.03 µM; in test [5], 3.8 µM; in [6] it was 3660 nM. Further, the TGI in test [7] stood at 36.8 µM; in test [8], 3.33 µM.
As to `Cc1cc2c(C(=O)NCC#N)cccc2n1-c1nc2c(c(NCc3ccccc3)n1)CCCC2`, the GI50 in test [1] is 382 nM; in test [2], 185 nM; in test [4] it was 372 nM; in [5], 261 nM; in [6] it was 225 nM; in test [7], 191 nM. Further, the GI50 in test [10] was 257 nM; in test [8], 331 nM. Further, the TGI in test [1] was 1.39 µM; in [2], 0.637 µM; in test [4] it was more than 100 µM; in test [5], 0.686 µM; in test [6], 541 nM; in test [7] it was 0.444 µM. The TGI in test [10] came to 10.3 µM; in test [8] it was 0.976 µM.
Turning to `c1ccc(COCC[P+](c2ccccc2)(c2ccccc2)c2ccccc2)cc1`, the GI50 is 3490 nM in test [1]; 679 nM in [2]; 3.59 µM in [9]; 383 nM in test [4]; 1500 nM in [5]; 1390 nM in test [7]. Also, the GI50 in [10] was 725 nM. Further, the TGI in [1] was determined as 15.6 µM; in test [2] it was 12.5 µM; in test [9], 32.4 µM; in test [4], 16 µM; in test [5] it was 10.7 µM; in [7], 6.64 µM. Further, the TGI in test [10] worked out at 11 µM.
`CN(C)CCCOc1ccc(/C=C2/CCC/C(=C/c3ccc(OCCCN(C)C)cc3)C2=O)cc1`: the TGI in test [1] is 2.59 µM; in [2], 2.76 µM; in test [9], 4.49 µM; in test [3], 9.72 µM; in [4], 1.24 µM; in test [5] it was 4.16 µM. Moreover, the TGI in test [6] amounted to 2980 nM; in test [7], 3.65 µM; in test [8] it was 5.33 µM.
Turning to `COc1cccc(N2C(=O)/C(=C/c3ccc(N(CCC#N)CCC#N)cc3)N=C2c2cc([N+](=O)[O-])ccc2Cl)c1`, the TGI in test [1], in [9], in test [4], in [5], in test [7] and in test [10] was more than 100 µM each time.
For `COc1cccc(CCNC(=O)CC(c2ccccc2)(c2ccccc2)c2ccccc2)c1`, the GI50 in [1] was 10600 nM; in test [2] it was 2580 nM; in test [9], 59.4 µM; in [3] it was more than 100000 nM; in test [4], 6030 nM; in test [5] it was 10500 nM. Moreover, the GI50 was 4360 nM in [7] and 21900 nM in [8]. Also, the TGI in [1] is more than 100 µM; in [2], 26.7 µM; in test [9], more than 100 µM; in test [3], more than 100 µM; in test [4] it was more than 100 µM; in test [5], more than 100 µM. The values for the TGI in test [7] and in test [8] were more than 100 µM and 82.2 µM, respectively.
For `O=C(Nc1ccccc1)n1cc(-c2ccccn2)c(N2CCOCC2)n1`, the TGI was 74.7 µM in test [1]; more than 100 µM in test [2]; more than 100 µM in test [9]; more than 100 µM in test [3]; more than 100 µM in test [4]; more than 100 µM in test [5]. The TGI was 28.2 µM in test [7] and more than 100 µM in test [8].
